According to ChEMBL document CHEMBL1131925, “Modulation of multidrug resistance in tumor cells by taxinine derivatives” (Bioorg Med Chem Lett, 1999):
≈ marks a conversion by molar mass, not a printed value.

Columns and labels:
[1] = Amount of vincristine (VCR) accumulation in multidrug-resistant human ovarian cancer 2780AD cells at a concentration of 10 ug/mL.; type: functional, A2780 ADR
[2] = Amount of vincristine (VCR) accumulation in multidrug-resistant human ovarian cancer 2780AD cells at a concentration of 1 ug/mL.; type: functional, A2780 ADR
[3] = Cytotoxicity against human epidermoid carcinoma KB cells; type: functional, cell-based
[4] = Cytotoxicity against murine lymphoma L1210 cells; type: functional, cell-based; details: Mus musculus

SMILES | Vincristine accumulation [1] | Vincristine accumulation (% of control) [2] | IC50 [3] | IC50 [4]
CC(=O)O[C@@H]1[C@@H]2CC(=O)C(C)=C([C@@H](OC(C)=O)[C@H](OC(C)=O)[C@]3(C)CC[C@H](O)[C@]4(CO4)[C@@H]13)C2(C)C | 238% | 144% | – | –
CC[Si](CC)(CC)O[C@H]1CC[C@@]2(C)[C@@H](OC(C)=O)[C@H](OC(C)=O)C3=C(C)C(=O)C[C@@H]([C@@H](OC(C)=O)[C@@H]2[C@@]12CO2)C3(C)C | 748% | 227% | – | –
C=C1[C@@H](OC(=O)/C=C/c2ccccc2)CC[C@@]2(C)[C@@H](O)[C@H](O)C3=C(C)C(=O)C[C@@H]([C@@H](O)[C@H]12)C3(C)C | 518% | 225% | – | –
C=C1[C@@H](O)CC[C@@]2(C)[C@@H](OC(C)=O)[C@H](OC(C)=O)C3=C(C)C(=O)C[C@@H]([C@@H](O)[C@H]12)C3(C)C | 271% | 139% | – | –
C=C1[C@@H](OC(=O)/C=C/c2ccccc2)CC[C@@]2(C)[C@@H](OC(C)=O)[C@H](OC(C)=O)C3=C(C)C(=O)C[C@@H]([C@@H](OC(C)=O)[C@H]12)C3(C)C | 571% | 195% | – | –
C=C1[C@@H](OCOCc2ccccc2)CC[C@@]2(C)[C@@H](OC(C)=O)[C@H](OC(C)=O)C3=C(C)C(=O)C[C@@H]([C@@H](OC(C)=O)[C@H]12)C3(C)C | 1110% | 401% | 9 µg/mL (≈ 15.1 µM) | 8 µg/mL (≈ 13.4 µM)
C=C1[C@@H](O)CC[C@@]2(C)[C@@H](OC(C)=O)[C@H](OC(C)=O)C3=C(C)[C@@H](O)C[C@@H]([C@@H](OC(C)=O)[C@H]12)C3(C)C | 422% | 164% | – | –
C=C1[C@@H](OC(=O)/C=C/c2ccccc2)CC[C@@]2(C)[C@@H](OC(=O)/C=C/c3ccccc3)[C@H](OC(=O)/C=C/c3ccccc3)C3=C(C)C(=O)C[C@@H]([C@@H](OC(C)=O)[C@H]12)C3(C)C | 273% | 181% | – | –
C=C1[C@@H](O)CC[C@@]2(C)[C@@H](OC(C)=O)[C@H](OC(C)=O)C3=C(C)[C@H](OC(=O)/C=C/c4ccccc4)C[C@@H]([C@@H](OC(C)=O)[C@H]12)C3(C)C | 551% | 213% | – | –
CC(=O)O[C@@H]1[C@@H]2CC(=O)C(C)=C([C@@H](OC(C)=O)[C@H](OC(C)=O)[C@]3(C)CC[C@H](OC(=O)c4ccccc4)[C@@]4(CO4)[C@@H]13)C2(C)C | 402% | 140% | – | –
C=C1[C@@H](OC(=O)c2ccccc2)CC[C@@]2(C)[C@@H](OC(C)=O)[C@H](OC(C)=O)C3=C(C)C(=O)C[C@@H]([C@@H](OC(=O)c4ccccc4)[C@H]12)C3(C)C | 470% | 146% | – | –
C=C1[C@@H](OC(=O)/C=C/c2ccccc2)CC[C@@]2(C)[C@@H](OC(=O)c3ccccc3)[C@H](OC(=O)c3ccccc3)C3=C(C)C(=O)C[C@@H]([C@@H](OC(C)=O)[C@H]12)C3(C)C | 210% | 141% | – | –
C=C1[C@@H](O)CC[C@@]2(C)[C@@H](OC(C)=O)[C@H](OC(C)=O)C3=C(C)[C@@H](OC(=O)c4ccccc4)C[C@@H]([C@@H](OC(C)=O)[C@H]12)C3(C)C | 643% | 185% | – | –
C=C1[C@@H](O)CC[C@@]2(C)[C@@H](OC(C)=O)[C@H](OC(C)=O)C3=C(C)[C@@H](OC(=O)/C=C/c4ccccc4)C[C@@H]([C@@H](OC(C)=O)[C@H]12)C3(C)C | 699% | 249% | – | –
C=C1[C@@H](OC(=O)c2ccccc2)CC[C@@]2(C)[C@@H](OC(C)=O)[C@H](OC(C)=O)C3=C(C)[C@@H](O)C[C@@H]([C@@H](OC(C)=O)[C@H]12)C3(C)C | 649% | 151% | – | –
C=C1[C@@H](O)CC[C@@]2(C)[C@@H](OC(C)=O)[C@H](OC(C)=O)C3=C(C)C(=O)C[C@@H]([C@@H](OC(=O)/C=C/c4ccccc4)[C@H]12)C3(C)C | 727% | 207% | – | –
C=C1[C@@H](O[Si](CC)(CC)CC)CC[C@@]2(C)[C@@H](OC(C)=O)[C@H](OC(C)=O)C3=C(C)C(=O)C[C@@H]([C@@H](OC(C)=O)[C@H]12)C3(C)C | 669% | 213% | – | –
C=C1[C@@H](OC(=O)c2ccccc2)CC[C@@]2(C)[C@@H](OC(C)=O)[C@H](OC(C)=O)C3=C(C)C(=O)C[C@@H]([C@@H](OC(C)=O)[C@H]12)C3(C)C | 645% | 184% | – | –
C=C1[C@@H](OC(=O)c2ccccc2)CC[C@@]2(C)[C@@H](OC(=O)c3ccccc3)[C@H](OC(=O)c3ccccc3)C3=C(C)C(=O)C[C@@H]([C@@H](OC(C)=O)[C@H]12)C3(C)C | 324% | 132% | – | –
C=C1[C@@H](O)CC[C@@]2(C)[C@@H](OC(C)=O)[C@H](OC(C)=O)C3=C(C)[C@H](O)C[C@@H]([C@@H](OC(C)=O)[C@H]12)C3(C)C | 290% | 149% | – | –
CC[Si](CC)(CC)O[C@H]1CC[C@@]2(C)[C@@H](OC(C)=O)[C@H](OC(C)=O)C3=C(C)C(=O)C[C@@H]([C@@H](OC(C)=O)[C@@H]2[C@]12CO2)C3(C)C | 752% | 233% | – | –
CC(=O)O[C@@H]1[C@@H]2CC(=O)C(C)=C([C@@H](OC(C)=O)[C@H](OC(C)=O)[C@]3(C)CC[C@H](OC(=O)/C=C/c4ccccc4)[C@@]4(CO4)[C@@H]13)C2(C)C | 1027% | 358% | > 10 µg/mL | 3 µg/mL (≈ 4.82 µM)
C=C1[C@@H](OC(=O)/C=C/c2ccccc2)CC[C@@]2(C)[C@@H](OC(=O)/C=C/c3ccccc3)[C@H](OC(=O)/C=C/c3ccccc3)C3=C(C)C(=O)C[C@@H]([C@@H](OC(=O)/C=C/c4ccccc4)[C@H]12)C3(C)C | 230% | 186% | – | –
CC(=O)O[C@@H]1[C@@H]2CC(=O)C(C)=C([C@@H](OC(C)=O)[C@H](OC(C)=O)[C@]3(C)CC[C@H](OC(=O)c4ccccc4)[C@]4(CO4)[C@@H]13)C2(C)C | 391% | 200% | – | –
CC(=O)O[C@@H]1[C@@H]2CC(=O)C(C)=C([C@@H](OC(C)=O)[C@H](OC(C)=O)[C@]3(C)CC[C@H](O)[C@@]4(CO4)[C@@H]13)C2(C)C | 364% | 180% | – | –
C=C1[C@@H](OC(=O)/C=C/c2ccccc2)CC[C@@]2(C)[C@@H](OC(C)=O)[C@H](OC(C)=O)C3=C(C)[C@H](OC(=O)/C=C/c4ccccc4)C[C@@H]([C@@H](OC(C)=O)[C@H]12)C3(C)C | 234% | 157% | – | –
C=C1[C@@H](OC(=O)c2ccccc2)CC[C@@]2(C)[C@@H](OC(C)=O)[C@H](OC(C)=O)C3=C(C)[C@H](OC(=O)c4ccccc4)C[C@@H]([C@@H](OC(C)=O)[C@H]12)C3(C)C | 391% | 197% | – | –
C=C1[C@@H](OC(=O)/C=C/c2ccccc2)CC[C@@]2(C)[C@@H](O)[C@H](O)C3=C(C)C(=O)C[C@@H]([C@@H](OC(C)=O)[C@H]12)C3(C)C | 619% | 274% | – | –
C=C1[C@@H](O)CC[C@@]2(C)[C@@H](OC(C)=O)[C@H](OC(C)=O)C3=C(C)C(=O)C[C@@H]([C@@H](OC(C)=O)[C@H]12)C3(C)C [TAXININE A] | 461% | 153% | – | –
COc1ccc(CCN(C)CCCC(C#N)(c2ccc(OC)c(OC)c2)C(C)C)cc1OC (centres undefined) [VERAPAMIL] | 739% | 254% | – | –
